From US20040157866A1, “Amide compounds” (priority 2001, published 2004)

Legend:
Apo B secretion = test: Test 1: Measurement of Inhibition of Apo B Secretion (HepG2 cells, ELISA); type: cell-based; conditions: 1 × 10^−8 M test compound, 15-hour incubation, 0.1% DMSO treated cells as controls; for inhibition at 0.01 µM: Homo sapiens
Method: Test 1: Measurement of Inhibition of Apo B Secretion
HepG2 cells were seeded in Eagles medium containing 10% fetal calf serum (FCS) at a density of 30000 cells/well in 96-well plates and allowed to grow for 3 days before treatment. At this time, the medium was replaced with fresh medium containing 0.1% dimethyl sulfoxide (DMSO) and the indicated concentrations of a test compound. After 15-hour incubation, the amount of Apo B and Apo AI accumulated in the media was determined by ELISA.
The assay was carried out at room temperature. A flat bottomed micro ELISA plate (manufactured by Nunc) was coated with an anti Apo B monoclonal antibody solution ([…] in 0.05% carbonate buffer, pH 9.6) by adding the antibody solution at a volume of 100 μl per well. After 1-hour incubation on a plate mixer, the unbound materials were removed by washing the well 3 times with a washing buffer (phosphate buffered saline, pH 7.2 containing 0.1% bovine serum albumin and 0.05% Tween-20). Then 20 μl of a solution of the test compound (dissolved in the culture medium) and 100 μl of a solution of peroxidase coupled anti Apo B antibody were added. After 1-hour incubation on a plate mixer, washing was performed 3 times to remove the unbound materials. A freshly prepared substrate solution (2.5 mg/ml ortho-phenylene diamine and 0.018% H2O2 in 0.11M Na2HPO4-0.044 M sodium citrate buffer, pH 5.4) at a volume of 200 μl was then added to each well. After 20-minute incubation, the enzyme reaction was terminated by adding 50 μl of 0.5 M sulfuric acid. Absorbance of each well was determined at 490 nm using a microplate reader. Apo B concentration was calculated from a standard curve generated from purified Apo B standard that was run in parallel in the same plate. Inhibition of Apo B secretion by the test compound is calculated taking 0.1% DMSO treated cells as controls.
Measurement of Apo AI was performed similar to that of Apo B, except for diluting the sample 11-fold with a dilution buffer (phosphate buffered saline, pH 7.2 containing 0.5% bovine serum albumin and 0.05% Tween-20).
Apo B secretion inhibitors are identified as compounds that decrease Apo B secretion without affecting the secretion of Apo AI.

ddY-mice = test: Test 2: Lipids Lowering Effect on ddY-Mice; type: in vivo; conditions: male ddY-mice, oral dose 10 mg/kg, relative to baseline; for Cholesterol (% of 0 hr) 2 hr: plasma total-cholesterol 2 hours after administration; for Triglyceride (% of 0 hr) 2 hr: plasma triglyceride 2 hours after administration
Source text: Test 2: Lipids Lowering Effect on ddY-Mice
Male ddY-mice were housed in temperature- and humidity-controlled rooms and fed with laboratory chow. The animals were randomized according to their body weight and deprived of food just before the experiment. A blood sample (baseline blood sample) was collected from the retro orbital venous plexus before administration of the test drug, and then the animals were orally dosed with the test drug in a vehicle (aqueous solution of 0.5% methylcellulose). Blood samples were drawn at 2 hours after drug administration for the measurement of cholesterol and triglyceride.
Plasma total-cholesterol and plasma triglyceride were determined by conventional enzyme methods using commercially available kits. The cholesterol CII-Test Wako (Wako Pure Chemical Industries, Ltd.) was used for the measurement of cholesterol, and the triglyceride E-test Wako (Wako Pure Chemical Industries, Ltd.) was used for the measurement of triglyceride.
Lipids lowering effects were shown in percent relative to the baseline level (level at 0 hr).

O=C(Nc1ccc2c(c1)CCN2CCc1ccccn1)c1ccccc1-c1ccc(C(F)(F)F)cc1 [Example 1, N-{1-[2-(2-Pyridinyl)ethyl]-2,3-dihydro-1H-indol-5-yl}-4′-(trifluoromethyl)-1,1′-biphenyl-2-carboxamide]
inhibition at 0.01 µM (Apo B secretion): 92.2% | Cholesterol (% of 0 hr) 2 hr (ddY-mice): 90 % of 0 hr | Triglyceride (% of 0 hr) 2 hr (ddY-mice): 13 % of 0 hr

Nc1nc(CC(=O)N2CCc3cc(NC(=O)c4ccccc4-c4ccc(C(F)(F)F)cc4)ccc32)cs1 [Example 58, N-{1-[(2-amino-1,3-thiazol-4-yl)acetyl]-2,3-dihydro-1H-indol-5-yl}-4′-(trifluoromethyl)-1,1′-biphenyl-2-carboxamide]
inhibition at 0.01 µM (Apo B secretion): 90.7%

Cc1ccc(-c2cc(C)ccc2C(=O)Nc2ccc3c(c2)CCN3C(=O)Cc2ccccn2)cc1 [Example 11, 4′,5-Dimethyl-N-[1-(2-pyridinylacetyl)-2,3-dihydro-1H-indol-5-yl]-1,1′-biphenyl-2-carboxamide]
Inhibition of Apo B secretion at 1 × 10^−8 M (%) (Apo B secretion): 97.2%

O=C(Nc1ccc2c(c1)CCN2C(=O)Cc1ccccn1)c1ccccc1-c1ccc(C(F)(F)F)cc1 [Example 4, N-[1-(2-Pyridinylacetyl)-2,3-dihydro-1H-indol-5-yl]-4′-(trifluoromethyl)-1,1′-biphenyl-2-carboxamide]
Inhibition of Apo B secretion at 1 × 10^−8 M (%) (Apo B secretion): 92.0% | Cholesterol (% of 0 hr) 2 hr (ddY-mice): 75 % of 0 hr | Triglyceride (% of 0 hr) 2 hr (ddY-mice): 13 % of 0 hr
